In article PMC10073293, “Discovery of IHMT-MST1-39 as a novel MST1 kinase inhibitor and AMPK activator for the treatment of diabetes mellitus” (Signal Transduction and Targeted Therapy, 2023):

Legend:
[1] = target: T1, MST1 (mammalian sterile 20-like kinase 1) (Homo sapiens, UniProt Q13043)
T1 construct: gene STK4

MST2 = target: T2, MST2 (Homo sapiens, UniProt Q13188); assay: biochemical kinase assay; KD also determined (Fig. 1c, d); KINOMEscan binding
T2 construct: gene STK3
T2 sequence (Q13188 1-491): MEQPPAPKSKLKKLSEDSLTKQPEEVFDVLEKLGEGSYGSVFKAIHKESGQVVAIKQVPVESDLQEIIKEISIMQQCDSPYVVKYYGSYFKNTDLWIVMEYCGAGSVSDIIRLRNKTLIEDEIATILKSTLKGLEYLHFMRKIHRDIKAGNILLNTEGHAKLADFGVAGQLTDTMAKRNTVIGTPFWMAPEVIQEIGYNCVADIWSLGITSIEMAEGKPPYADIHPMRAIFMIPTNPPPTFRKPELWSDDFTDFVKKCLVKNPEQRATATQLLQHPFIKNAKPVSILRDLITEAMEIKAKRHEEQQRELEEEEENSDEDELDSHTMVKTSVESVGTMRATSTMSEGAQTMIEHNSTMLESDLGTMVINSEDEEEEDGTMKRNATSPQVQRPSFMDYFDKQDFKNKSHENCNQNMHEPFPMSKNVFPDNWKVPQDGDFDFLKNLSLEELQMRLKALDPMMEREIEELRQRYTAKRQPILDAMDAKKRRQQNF

T1 sequence (Q13043 whole entry): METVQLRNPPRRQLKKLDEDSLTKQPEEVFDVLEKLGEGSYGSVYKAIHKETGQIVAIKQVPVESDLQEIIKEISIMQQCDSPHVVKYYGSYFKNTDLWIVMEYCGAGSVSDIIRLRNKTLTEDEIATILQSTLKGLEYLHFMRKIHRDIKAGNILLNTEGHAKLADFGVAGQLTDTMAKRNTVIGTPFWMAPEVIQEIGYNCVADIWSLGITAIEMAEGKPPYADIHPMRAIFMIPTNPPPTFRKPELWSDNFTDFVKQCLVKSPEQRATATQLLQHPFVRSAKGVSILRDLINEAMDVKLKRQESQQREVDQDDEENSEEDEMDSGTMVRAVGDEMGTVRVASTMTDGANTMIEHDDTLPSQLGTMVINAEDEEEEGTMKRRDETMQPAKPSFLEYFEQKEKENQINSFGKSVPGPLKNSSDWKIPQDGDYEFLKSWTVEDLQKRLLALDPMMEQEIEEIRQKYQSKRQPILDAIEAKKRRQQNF

IC50 [1]: 42 nM
IC50 (MST2): 109 nM
Compound: CN1C(=O)C(c2c(F)cccc2F)N(C)c2nc(Nc3ccc(S(N)(=O)=O)cc3)ncc21 (centres unmarked) [IHMT-MST1-39]
